The values that follow are results of earlier work, collected in patent US20220267352A1, “RAPAMYCIN ANALOGS AND USES THEREOF” (Anakuria Therapeutics, Inc., priority 2021, published 2022).

Molecules are shown by their SMILES.

For one series, the system named is PC3 cells. The settings on record: 1 or 24 hour treatment; cited from earlier work.
For a further series, the system named is human adipocytes. Set-up: dose or concentration left out as unconfirmed. The settings on record: therapeutic concentration; cited from earlier work.
A further series has as its system Lmna−/− mice. The settings on record: short-term treatment; cited from earlier work.

Turning to `CO[C@H]1C[C@@H]2CC[C@@H](C)[C@@](O)(O2)C(=O)C(=O)N2CCCC[C@H]2C(=O)O[C@H]([C@H](C)C[C@@H]2CC[C@@H](O)[C@H](OC)C2)CC(=O)[C@H](C)/C=C(\C)[C@@H](O)[C@@H](OC)C(=O)[C@H](C)C[C@H](C)/C=C/C=C/C=C/1C` [rapamycin], the “Akt phosphorylation (S473)” value in the series with PC3 cells was “strongly decreased Akt phosphorylation”. In the series on human adipocytes, the “AKT (PKB) Ser473 phosphorylation” value is on record as “reduced AKT (PKB) Ser473 phosphorylation” and the glucose uptake entry is “reduced glucose uptake”. Also, in the series on Lmna−/− mice, the enhanced survival is reported as approximately 50%.
